{
  "source": "patent US20220235012A1",
  "about": "“ACID ADDITION SALT OF PYRIMETHAMINE” (GLG PHARMA S.A., priority 2018, published 2022)",
  "key": {"[1]": {"experiment": "Solubility of pyrimethamine salts, own method at 20° C. and 60° C. in water, 10% Tween 80 and 10% Cremophor RH 40", "format": "physicochemical", "conditions": "without surfactant and/or emulsifier"}, "[2]": {"experiment": "Solubility in terms of Ph. Eur. 9.2 (approximate volume of solvent per gram of solute)", "format": "physicochemical", "conditions": "descriptive term", "experimental": "The solubility of pyrimethamine salts with different organic and mineral acids was evaluated according to the general recommendations described in Ph. Eur. 9.2 for the pharmaceutical active ingredients. The “solubility” ° according to Ph. Eur. 9.2, is the approximate volume of solvent in millilitres per gram of solute."}, "[3]": {"conditions": "cited from earlier work"}},
  "note": "Structures can show the parent of a compound that is named as a salt.",
  "data": [
    {"compound": "CCc1nc(N)nc(N)c1-c1ccc(Cl)cc1", "note": "[Methanesulfonate, methanesulfonic acid salt of 5-(4-chlorophenyl)-6-ethyl-2,4-pyrimidinediamine]", "values": [
      {"measurement": "solubility in water at ambient temperature", "setting": "[1]", "result": "freely soluble"},
      {"measurement": "Solubility in terms of Ph. Eur. 9.2", "setting": "[2]", "result": "Sparingly soluble"}
    ]},
    {"compound": "CCc1nc(N)nc(N)c1-c1ccc(Cl)cc1", "note": "[pyrimethamine, 5-(4-chlorophenyl)-6-ethyl-2,4-pyrimidinediamine]", "values": [
      {"measurement": "solubility of pyrimethamine in water", "setting": "[3]", "result": 10, "unit": "µg/mL"}
    ]}
  ]
}
